Test results published in US20210261495A1, “COMPOSITIONS AND METHODS OF USING ITACONIC ACID DERIVATIVES” (ERGON PHARMACEUTICALS, LLC, priority 2018, published 2021).

Legend:
[1] = system: CT26 mouse colorectal tumors; assay: Survival and tumor growth of CT26 tumor-bearing mice; assay type: in vivo, C57BL/6 mice
Experimental: In Vivo Anti-Tumor Effect. The anticancer properties of the therapeutic agent were evaluated in vivo by determining the ability of the agent to suppress tumor growth and/or increase survival of tumor-bearing animals. In a typical experiment, 0.1-1×10^6 tumor cells, suspended in PBS containing 20% Matrigel, were injected subcutaneously in the right flank of each mouse. When the tumors became palpable, the animals were randomized into different groups and treatment began. In vivo tests routinely included a vehicle control group and different doses and/or routes of administration of the therapeutic agent. Tumor growth was assessed using calipers and the following formula:
Tumor Volume=length×width×width×½
The Kaplan-Meier analysis was used to estimate the survival probability of the tumor-bearing animals.
C57BL/6 mice were injected subcutaneously in the right flank with 1×10^5 CT26 mouse colorectal tumor cells, suspended in PBS containing 20% Matrigel. The tumors were allowed to grow to −100 mm^3. The mice were randomized into two groups (n=6 animals/group): one group received vehicle control and the other group was treated with i.p. injections of 0.2 mg/kg Compound (6) twice a week (Tuesday-Thursday). The experiment continued for 27 days, at which point the mortality rate of control animals was 80%. […] The experiment was repeated (FIG. 6B). In FIG. 6B, treated animals received oral administrations of 3 mg/kg Compound (6) twice a day.

[2] = biological target: T1, IRG1 (Homo sapiens, UniProt A6NK06); assay: Itaconic acid synthesis by LPS-stimulated macrophages (inhibition of IRG1), GC-MS; assay type: cell-based; details: LPS-stimulated hMDMs, 50, 100, 500 μM, LPS 8 hrs
T1 construct: Human monocytes, isolated from peripheral blood and differentiated into macrophages; endogenous in cells; host or cells: human monocyte-derived macrophages (hMDMs), M-CSF differentiated, LPS-stimulated
T1 sequence (A6NK06 1-481): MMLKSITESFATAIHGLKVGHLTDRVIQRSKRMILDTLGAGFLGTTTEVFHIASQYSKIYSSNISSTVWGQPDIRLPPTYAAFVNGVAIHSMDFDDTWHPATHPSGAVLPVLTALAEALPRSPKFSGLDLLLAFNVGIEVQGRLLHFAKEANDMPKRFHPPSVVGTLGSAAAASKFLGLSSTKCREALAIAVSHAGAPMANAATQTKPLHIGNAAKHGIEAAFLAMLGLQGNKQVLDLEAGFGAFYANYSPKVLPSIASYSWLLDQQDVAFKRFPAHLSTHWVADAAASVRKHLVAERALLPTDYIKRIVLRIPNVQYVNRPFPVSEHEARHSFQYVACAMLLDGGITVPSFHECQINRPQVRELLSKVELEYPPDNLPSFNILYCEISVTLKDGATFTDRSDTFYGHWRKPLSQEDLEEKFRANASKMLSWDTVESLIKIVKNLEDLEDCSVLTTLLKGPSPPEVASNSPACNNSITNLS
Experimental: Inhibition of IRG1. Itaconic acid levels are a measure of IRG1 expression/activity. To determine the activity of IRG, hMDMs were stimulated with 100 ng/mL LPS for 8 hrs in the presence or absence of the therapeutic agent. Gas chromatography-mass spectroscopy (GC-MS) was used to estimate the intracellular and extracellular concentration of the itaconic acid. In a typical assay, 1-5×10^6 cells were plated onto a 6-well plate and allowed to adhere overnight. The cells were then stimulated with 0.1-1 μg/mL LPS in the presence or absence of the compound of interest for 8 hrs. The cells were then washed and metabolites were extracted using methanol/water and acetonitrile additions. The aqueous phase of the mixture was dried and metabolites present were derivatized prior to the detection by GC-MS.
Itaconic Acid Synthesis by LPS-Stimulated Macrophages after Treatment with Compound (6). Human monocytes, isolated from peripheral blood and differentiated into macrophages in the presence of 100 ng/mL monocyte colony-stimulating factor (M-CSF) for 5 days, were plated onto a 6-well plate at a density of 1×10^6 cells/well. The cells were allowed to adhere overnight. […] Derivatized metabolites were analyzed by GC-MS. The amount of itaconic acid present in the samples was determined after peak integration. […]

[3] = system: hCD8^+ T cells; assay: Proliferation of TCR-activated hCD8+ T cells, CFSE dilution; assay type: cell-based, human; details: 10 nM, compared to untreated TCR-activated control cells
Experimental: Augmentation of CD8^+ T Cell Proliferation. Naïve hCD8^+ T cells were isolated from commercially available buffy coats using magnetic separation and the appropriate kit from Miltenyi Biotec. Cells were then subject to TCR activation using a cocktail of anti-CD2/anti-CD^3/anti-CD28 antibodies. Untreated control and treated cells were included in the experiment. The cells were cultured for 72 hrs in TexMACS media (Miltenyi Biotec) without IL-2 and for an additional 48 hrs in TexMACS media containing 20U human IL-2/mL. Cell division was assessed by flow cytometry using the carboxyfluorescein succimidyl ester (CFSE) dilution method.

[4] = 3 mg/kg oral twice a day, end of experiment

O=C(O)/C(=C\c1ccc(F)cc1)C(Cc1ccccc1)C(=O)O (stereo not shown) [Compound (6), 2-benzyl-3-[(4-flurophenyl)methylidene]butanedioic acid]
survival (Kaplan-Meier) ([1]; 0.2 mg/kg i.p. twice a week, 27 days, vs vehicle control): survival advantage | animals with complete tumor regression [1, 4]: 1/6 | mice with slower tumor growth [1, 4]: 5/6 | survival (Kaplan-Meier) ([1]; 3 mg/kg orally twice a day): increased survival | extracellular levels of itaconic acid [2]: suppressed | intracellular levels of itaconic acid [2]: suppressed | proliferation of TCR-activated hCD8+ T cells [3]: increased proliferation
